Experimental data reported in patent publication US20240316155A1, “COMPOSITION FOR TREATING SHORT BOWEL SYNDROME” (ZEALAND PHARMA A/S, priority 2021, published 2024).
*1 amine or outer side, *2 acyl side, *3 side chain or, on linkers, in order; H or OH if unused. Side-chain parts run from the residue outwards. [ ]: non-standard residue; d: D form. The star is where a group is joined. C18 diacid = O=C(O)CCCCCCCCCCCCCCCCC(=O)*; γGlu = O=C(O)[C@H](CCC(=O)[*:2])N[*:1]; Aib = CC(C)(N)C(=O)O

Legend:
[1] = tested on: Short Bowel Syndrome (SBS) mice; test: Short bowel syndrome (SBS) mice, ileum and cecum resection (ICR): postoperative survival, body weight, dietary intake; format: in vivo, C57BL/6J mice; conditions: ICR-resected mice
Text: (§1) Adult, male C57BL/6J mice with ˜30 g body weight of ˜4 months received a 12-cm ileum and cecum resection (ICR) with jejunocolonic anastomosis (see FIG. 1, middle). The mice were then randomly assigned to either Cpd 18 or vehicle treatment As control for the abdominal surgery, the sham group was included which had laparotomy, bowel exposure, transection and end-to-end anastomosis but no resection (see FIG. 1, bottom). To prevent intestinal obstruction, all mice were switched to liquid diet 2 days before surgery and maintained on this diet until the end of the experiment. Throughout the experiment, animals were singly housed. All mice were studied with the intention to survive to day 14.
Briefly, mice were anesthetized by i. p. injection of ketamine (100 mg/kg bw) and xylazine (15 mg/kg bw) and orally intubated and ventilated. After midline incision, the distal small bowel and the cecum were exposed and then transected 12 cm proximal to the ileocecal junction and immediately distal to the cecum. The resected bowel was removed, and the length of the specimen was measured. An end-to-end, jejunocolonic anastomosis was created and the abdomen was closed. In the sham group, laparotomy, bowel exposure, transection and end-to-end anastomosis but no resection was performed. Immediately after surgery, all mice were weighed and received 1 ml isotonic saline subcutaneously and carprofen 5 mg/kg body weight. All surgical procedures were performed by the same surgeon. Mice were kept in a heated terrarium (29° C.) for 4 h and then returned to individual cages with free access to liquid food and water. The liquid diet was provided in feeding tubes. Mice were allowed to recover for a day after surgery, and then injected once daily with 30 nmol/kg body weight of Cpd 18. […]
Mice were scored for wellbeing daily as described (Berlin et al. 2019). If the wellness score dropped to below 4 pts, or when weight loss exceeded 20%, the mouse was immediately killed and not analyzed further. […]
Body weight (FIG. 6) and food consumption (FIG. 7) was measured daily. […]

[2] = tested on: Short Bowel Syndrome (SBS) mice; test: SBS mice (ICR): stool water content; format: in vivo, C57BL/6J mice; conditions: ICR-resected mice
Text: as §1
Briefly, mice were anesthetized by i. p. injection of ketamine (100 mg/kg bw) and xylazine (15 mg/kg bw) and orally intubated and ventilated. After midline incision, the distal small bowel and the cecum were exposed and then transected 12 cm proximal to the ileocecal junction and immediately distal to the cecum. The resected bowel was removed, and the length of the specimen was measured. An end-to-end, jejunocolonic anastomosis was created and the abdomen was closed. In the sham group, laparotomy, bowel exposure, transection and end-to-end anastomosis but no resection was performed. Immediately after surgery, all mice were weighed and received 1 ml isotonic saline subcutaneously and carprofen 5 mg/kg body weight. All surgical procedures were performed by the same surgeon. Mice were kept in a heated terrarium (29° C.) for 4 h and then returned to individual cages with free access to liquid food and water. The liquid diet was provided in feeding tubes. Mice were allowed to recover for a day after surgery, and then injected once daily with 30 nmol/kg body weight of Cpd 18. 50 mM Histidine buffer pH 6, 200 mM Mannitol served as vehicle control.
Stools were collected on selected days throughout the experiment. Stool water content was assessed by collecting stools in a pre-weighed tube, weighing, and then drying overnight at 80° C. and reweighing the dried stools. […]

[3] = tested on: Short Bowel Syndrome (SBS) mice; test: SBS mice (ICR): visual assessment of stool consistency with reference to Bristol Stool type; format: in vivo, C57BL/6J mice
Text: as §1
Briefly, mice were anesthetized by i. p. injection of ketamine (100 mg/kg bw) and xylazine (15 mg/kg bw) and orally intubated and ventilated. After midline incision, the distal small bowel and the cecum were exposed and then transected 12 cm proximal to the ileocecal junction and immediately distal to the cecum. The resected bowel was removed, and the length of the specimen was measured. An end-to-end, jejunocolonic anastomosis was created and the abdomen was closed. In the sham group, laparotomy, bowel exposure, transection and end-to-end anastomosis but no resection was performed. […]

SBS patients = conditions: cited from earlier work
SBS mice = conditions: cited from earlier work

Compound | survival rate after 14 days ([1]; 30 nmol/kg once daily from day 1 after surgery, vehicle 60%, sham 90%) | postoperative relative body weight (relative to initial weight) ([1]; 30 nmol/kg once daily, compared to vehicle, up to day 14) | postoperative dietary intake ([1]; 30 nmol/kg once daily, from day 2 onwards, compared to vehicle) | stool water content ([2]; 30 nmol/kg once daily, day 14, vehicle approximately 75%, sham 50%) | stool water content compared to vehicle ([2]; 30 nmol/kg once daily, from day 7) | stool water content ([2]; after 2 days) | stool consistency, Bristol Stool type ([3]; day 5 after resection, vehicle Type 6 or 7, sham Type 3 or 4) | stool consistency, Bristol Stool type ([3]; day 14, vehicle Type 6 or 7) | effect on diarrhea (SBS patients) | effect on treatment of diarrhea (SBS mice)
H-H[Aib]EGSFTSELATILDK([γGlu-C18 diacid])QAARDFIAWLIQHKITD-OH [Cpd 18] | 74% | differed from the vehicle group after six days onwards by starting to increase towards the initial weight | lower | approximately 50% | significantly reduced compared to vehicle | approximately 75% | Type 4 or 5 | type 4 | – | –
CC[C@H](C)[C@H](NC(=O)[C@H](Cc1ccccc1)NC(=O)[C@H](CC(=O)O)NC(=O)[C@H](CCCNC(=N)N)NC(=O)[C@H](C)NC(=O)[C@H](C)NC(=O)[C@H](CC(C)C)NC(=O)[C@H](CC(N)=O)NC(=O)[C@H](CC(=O)O)NC(=O)[C@H](CC(C)C)NC(=O)[C@@H](NC(=O)[C@@H](NC(=O)[C@H](CC(N)=O)NC(=O)[C@H](CCSC)NC(=O)[C@H](CCC(=O)O)NC(=O)[C@H](CC(=O)O)NC(=O)[C@H](CO)NC(=O)[C@H](Cc1ccccc1)NC(=O)[C@H](CO)NC(=O)CNC(=O)[C@H](CC(=O)O)NC(=O)CNC(=O)[C@@H](N)Cc1c[nH]cn1)[C@@H](C)O)[C@@H](C)CC)C(=O)N[C@@H](CC(N)=O)C(=O)N[C@@H](Cc1c[nH]c2ccccc12)C(=O)N[C@@H](CC(C)C)C(=O)N[C@H](C(=O)N[C@@H](CCC(N)=O)C(=O)N[C@H](C(=O)N[C@@H](CCCCN)C(=O)N[C@H](C(=O)N[C@H](C(=O)N[C@@H](CC(=O)O)C(=O)O)[C@@H](C)O)[C@@H](C)CC)[C@@H](C)O)[C@@H](C)CC [Teduglutide, [Gly2]-hGLP-2 (1-33)] | – | – | – | – | – | – | – | – | some effect | intermittent effect
